Laboratory results taken from article PMC9147958, “Formulation and Evaluation of SNEDDS Loaded with Original Lipophenol for the Oral Route to Prevent Dry AMD and Stragardt’s Disease” (Pharmaceutics, 2022).
In brackets after ≈: the same amount, converted by molar mass. Where two headings read alike, the source gives them in different places. Each block holds one molecule with its values, some of them ahead of it.

How the values were obtained:
[1] = Solubility of IP-DHA in PBS, SGF and ISF without enzymes; format: physicochemical; settings: for solubility: thermodynamic from solid, n = 3
Method: Solubility was evaluated in PBS (pH 7.4), SGF, and ISF (Table 1) without enzymes (pepsin and pancreatin). An excess of IP-DHA was added for each medium type, followed by mixing using a vortex mixer (Vortex Génie 2) and equilibration at room temperature. Next, the mixtures were centrifuged at 3000 rpm (Sigma centrifuge 2K15) for 15 min. The supernatant from each sample was diluted with methanol. The concentration of IP-DHA in each sample was determined using the µHPLC/MS-MS analysis, as described in Section 2.2.3.

Log P of IP-DHA = format: physicochemical
Caco-2 permeability = format: in vitro ADME; settings: human, Caco-2, pH 6.5/7.4, 10 μM
Method: Caco-2 cells are human intestinal epithelial cells that are derived from a colorectal adenocarcinoma. Cells were seeded at 1 × 10^5 cells/cm^2 in 96-well Multiscreen^TM plates (Millipore). This assay was performed in either the apical-to-basolateral (A–B) or B–A direction. IP-DHA was prepared at 10 μM in HBSS-MES (pH 6.5) or HBSS-HEPES (pH 7.4), with a final DMSO concentration of 1%. The working solution was then centrifuged, and the supernatant was added to the donor side. The assay plate was incubated at 37 °C with gentle shaking for 60 min or 40 min for the A–B or B–A assays, respectively. Samples were aliquoted from the donor side at time zero and from the end point, and from the receiver side at the end point. Samples were analyzed via HPLC-MS/MS, as described in Section 2.2.3.
The apparent permeability coefficient (Papp) in cm/s of IP-DHA was calculated as follows: Papp=VR×CRend/Δt×1/A×CDmind−CRmind where VR is the volume of the receiver chamber. CR(end) is the concentration of IP-DHA in the receiver chamber at the end time point, Δt is the incubation time, A is the surface area of the cell monolayer, and CD(mid) is the calculated mid-point concentration of the test compound on the donor side, which is the mean value of the donor concentration at time 0 min and the donor concentration at the end time point. […]

[2] = Stability on human microsomes; format: in vitro ADME; design: dose or concentration left out as unconfirmed; settings: pooled liver microsomes, pH 7.4, 37 °C, NADPH-generating system, read-out: Stability on human microsomes T1/2
Method: The metabolic stability of IP-DHA on human microsomes (microsomes S9, cryopreserved hepatocytes, recombinant CYP, and recombinant UGT) has been evaluated and expressed as percentage of IP-DHA remaining. IP-DHA was pre-incubated with pooled liver microsomes in phosphate buffer (pH 7.4) at 10 mM for 5 min in a 37 °C shaking water bath (IKA® RH basic KT/C). The reaction was initiated using the NADPH-generating system and incubated for 0, 15, 30, 45, and 60 min. The reaction was stopped by transferring the incubation mixture to acetonitrile/methanol (1:3 v/v ratio). Samples were then mixed and centrifuged at 3000 rpm (Sigma centrifuge 2K15) for 20 min to precipitate the protein, and supernatants were collected. IP-DHA concentration was determined using µHPLC-MS/MS analysis, as described in Section 2.2.3. The half-life (T1/2) was estimated from the slope of the initial linear range of the logarithmic curve of the compound remaining (%) vs. time, assuming first-order kinetics.

[3] = Solubility of IP-DHA in SNEDDS excipients; format: physicochemical
[4] = IP-DHA stability and solubility in gastric- and intestinal-simulated fluids; format: in vitro ADME; design: half-life: dose or concentration left out as unconfirmed
Method: The chemical stability of free IP-DHA and IP-DHA loaded in SNEDDS at 30 mg/mL was evaluated in a gastric and an intestinal environment (Table 1). A total of 150 µL of free IP-DHA (solubilized in MeOH) or SNEDDS-IP-DHA loaded at 30 mg/mL were placed in 20 mL of freshly prepared SGF or ISF under magnetic stirring at 150 rpm in a water bath at 37 °C. Samples were collected at 0, 30, 60, and 90 min for the stability analysis in SGF, or 0, 20, 40, 60, 80, 100, and 120 min for the stability analysis in ISF. A total of 500 µL of the medium was recovered and diluted with 500 µL of MeOH to stop the enzymatic degradation reaction. The samples were centrifuged (Sigma centrifuge 2K15) for 10 min at 15,000 rpm. The supernatant was removed and IP-DHA was quantified as described in Section 2.3.5.

ABCA4KO mice [5] = assay: Acute light-induced retinal degeneration, electroretinography; format: in vivo; settings: 100 mg/kg oral, 60 min before 20,000 Lux white light for 90 min, ERG 5 days later
Method: (§1) Mice between 8 and 16 weeks of age (both sexes), were weighed to adjust the quantity of administered compound for a dosage at 100, 50, or 17 mg/kg. Mice were orally fed with a 22-gauge needle containing SNEDDS or soybean oil as a control vehicle, IP-DHA solubilized in soybean oil (20 mg/mL), and SNEDDS-IP-DHA (30 mg/mL).
(§2) After the mice were dark-adapted (DA) for 24 h, their pupils were dilated with 0.5% tropicamide. The mice were force-fed in the dark 1 h before light exposure. Mice were exposed to constant light (two cool white fluorescent lamps, OSRAM of 26 watts, 1800 lm, a maximum photopic efficiency of ~470 nm, light intensity averaged to 24 mW/cm^2, corresponding to ≈20.000 Lux) for 1.50 h in a white plastic bucket with a fan. Mice were kept in the dark for 5 days before we performed the final retinal evaluations. Throughout the experiment, the ambient temperature was 22 °C, which was identical to that of the breeding box, to avoid an increase in body temperature, which could further damage the retina.
All electrophysiological examinations were conducted using the Visiosystem (SIEM, France). Animals were prepared and anesthetized, and electroretinogram recording (binocular full-field ERG) was performed with cotton electrodes, as previously described.

ABCA4KO mice [6] = assay: Acute light-induced retinal degeneration, histological analysis; format: in vivo; settings: 100 mg/kg oral, acute white light; dark-adapted mice 2.2
Method: as §1, §2
All animals were killed via cervical dislocation. The eyes were rapidly enucleated and fixed in 4% paraformaldehyde for 24 h at 4 °C. Eyecups were embedded in paraffin and cut into 5 μm sagittal sections. […] The thickness of the inner nuclear layer (INL) and the outer nuclear layer (ONL) was measured and expressed in arbitrary units using ImageJ software. […]

[7] = test system: ABCA4KO (−/−) mouse model; design: method as in PMID 32641711; settings: intravenous route, cited from earlier work
retinal cells = test system: retinal cells; design: method as in PMID 27072643; settings: in vitro; cited from earlier work
ddY mice = settings: cited from earlier work
rats = settings: 25 mg/kg/day oral with corn oil, 30 days, 1.5 h/day (1500 Lux); cited from earlier work
[8] = design: method as in PMID 27151507; settings: administered dose of 25 mg/kg; cited from earlier work

solubility ([1]; PBS, pH 7.4, aqueous buffer, room temperature, read-out: Solubility in PBS, pH 7.4): 0.0115 ± 0.00153 mg/mL (≈ 0.0241 mM)
BCS classification ([1]; from poor solubility and poor Caco-2 permeability): BCS Class IV
solubility ([1]; pH 1.5, simulated gastric fluid, free IP-DHA, SGF without pepsin, read-out: Solubility in SGF): 0.00739 ± 0.00026 mg/mL (≈ 0.0154 mM)
solubility ([1]; pH 7.4, fassgf or other biorelevant, free IP-DHA, ISF without pancreatin, read-out: Solubility in ISF): 0.0102 ± 0.00012 mg/mL (≈ 0.0213 mM)
logP (Log P of IP-DHA): > 5
Papp B→A at 40 min, 10 μM (Caco-2 permeability; 40 min): 0.7 ± 0.05 ×10⁻⁶ cm/s
Papp A→B at 60 min, 10 μM (Caco-2 permeability; 60 min): 1 ± 0.14 ×10⁻⁶ cm/s
half-life [2]: 10 min
solubility ([3]; Labrasol, surfactant, read-out: Solubility of IP-DHA in Labrasol): 46 ± 2.15 mg/mL (≈ 96.1 mM)
solubility ([3]; Phosal 53 MCT, oil or lipid, oil phase, read-out: Solubility of IP-DHA in Phosal 53 MCT): 25.5 ± 3.27 mg/mL (≈ 53.2 mM)
solubility ([3]; Transcutol HP, organic solvent or mixture, co-surfactant, read-out: Solubility of IP-DHA in Transcutol HP): 45 ± 2.16 mg/mL (≈ 94.1 mM)
half-life ([4]; ISF with pancreatin and bile salts, pH 7.4, 37 °C, read-out: T1/2 of IP-DHA in intestinal environment (ISF)): 11 min
Stability of IP-DHA in gastric medium (SGF) ([4]; SGF with pepsin, pH 1.5, 37 °C, up to 90 min): remained stable
SMILES: CC/C=C\C/C=C\C/C=C\C/C=C\C/C=C\C/C=C\CCC(=O)Oc1cc(O)cc(OC(C)C)c1 [IP-DHA, phloroglucinol-isopropyl-DHA]
a-wave, % of photoreceptor activity remaining vs dark-adapted mice (ABCA4KO mice [5]): 42%
b-wave, % of photoreceptor activity remaining vs dark-adapted mice (ABCA4KO mice [5]): 39%
INL/ONL ratio of thickness (ABCA4KO mice [6]): 0.7
Protection of photoreceptors ([7]; IP-DHA associated with BSA at 30 mg/kg): 80–85%
Effect on the retinoid visual cycle [7]: did not affect the retinoid visual cycle
Toxicity on retinal cells (retinal cells): absence of the toxicity

SMILES: CC1=C(/C=C/C(C)=C/C=C/C(C)=C/C=C/C=C(C)/C=C/C=C(C)/C=C/C2=C(C)C(=O)[C@@H](O)CC2(C)C)C(C)(C)C[C@H](O)C1=O [Astaxantin]
Photoreceptor protection (ddY mice; dissolved in olive oil, 100 mg/kg oral, white light 3 h at 8000 Lux): partially preserve photoreceptors

SMILES: CC1=C[C@H](O)CC(C)(C)[C@H]1/C=C/C(C)=C/C=C/C(C)=C/C=C/C=C(C)/C=C/C=C(C)/C=C/C1=C(C)C[C@@H](O)CC1(C)C [lutein]
Photoreceptor protection (rats): demonstrated its efficacy for protecting photoreceptors

SMILES: CC(=O)N1CCN(c2ccc(N)c(-n3ccnc3)c2)CC1 [NSP-116]
Photoreceptor protection (ddY mice; suspended in water with 0.5% CMC, 30 mg/kg oral 30 min before white light 8000 Lux for 3 h): effective in protecting photoreceptors
Cmax in plasma [8]: 7000 ng/mL
